Test results from patent US10150793B2, “Antagonists of CB1 receptor” (INSERM (Institut National de la Santé et de la Recherche …, priority 2011, dated 2018).

Experiments:
CB1 receptor [1] = target: T1, CB1 receptor (Mus musculus, UniProt P47746); experiment: THC-induced increase in food intake in mice; type: in vivo; design: tissue Charles River Laboratories (France) (animals); host or cells: living mice, whole animal; settings: mice; THC between 0.5 and 1 mg/kg; compounds between 2 and 4 mg/kg 30 min before THC
T1 sequence (P47746 whole entry): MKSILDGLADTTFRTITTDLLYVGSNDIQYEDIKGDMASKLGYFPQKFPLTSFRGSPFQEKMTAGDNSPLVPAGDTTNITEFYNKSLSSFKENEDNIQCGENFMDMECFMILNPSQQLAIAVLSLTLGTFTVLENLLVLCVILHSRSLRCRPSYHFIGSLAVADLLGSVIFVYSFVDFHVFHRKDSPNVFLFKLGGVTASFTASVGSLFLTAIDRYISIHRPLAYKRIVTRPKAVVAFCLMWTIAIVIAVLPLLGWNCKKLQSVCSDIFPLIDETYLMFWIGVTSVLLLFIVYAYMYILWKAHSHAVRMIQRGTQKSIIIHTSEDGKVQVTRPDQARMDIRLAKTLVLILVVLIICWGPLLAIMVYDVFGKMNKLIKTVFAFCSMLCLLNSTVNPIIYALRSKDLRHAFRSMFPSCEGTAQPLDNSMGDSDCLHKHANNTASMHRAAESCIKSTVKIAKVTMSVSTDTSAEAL
Procedure: Food intake was evaluated by measuring consumption of food in the home cages of the animals. For each animal, 50-100 g of standard laboratory chow (U.A.R., France) was placed in the cleaned home cage. The remaining amount of food was weighted 1 h later and the amount of food consumed calculated.
(§1) Other pregnenolone derivatives (Table 4) for which the metabolism in downstream active steroids was reduced were tested for their ability to inhibit: 1. effects of the THC-induced cannabinoid tetrade (decrease in body temperature and in locomotor activity, (THC 10 mg/kg, compounds 6 mg/kg 15-30 min before THC) that is recognized as a sound method to evaluate the activation of the CB1 receptor; 2. THC-induced increase in food intake a typical effect of CB1 activation (THC between 0.5 and 1 mg/kg, compounds between 2 and 4 mg/kg 30 min before THC); 3. the increase in TNFalpha induced by LPS, another effects typical of CB1 […] (compounds 6 mg/kg 15 min before LPS). For each compound and each test independent groups of animals were used (at least n=6 per compound/per test).

TNF-α = experiment: Increase in plasma TNF-alpha induced by LPS; type: in vivo, mice; settings: Mus musculus; mice; compounds 6 mg/kg 15 min before LPS
Procedure: Trunk blood was collected and centrifuged at 3000 rpm for 15 min at 4° C. Plasma was stored at −80° C. until measurement of TNFα was carried out. Plasma TNFα levels were assessed using an ELISA kit, following the manufacturer's instructions (Fisher Scientific, Catalog #E6473C).
In this example the inventors further analyzed the ability of pregnenolone to inhibit the effects of CB1 activation in the context of inflammation and fibrosis. […] TNF-alpha is one of the cellular responses to inflammatory stimuli more involved in promoting fibrosis.
as §1

CB1 receptor [2] = target: T1, CB1 receptor; experiment: THC-induced cannabinoid tetrad (body temperature, locomotor activity, catalepsy, analgesia); type: in vivo, mice; design: tissue Charles River Laboratories (France) (animals); host or cells: living mice, whole animal; settings: mice; THC 10 mg/kg; compounds 6 mg/kg 15-30 min before THC
CHO cells = experiment: Study of metabolism in vitro in CHO cells, steroids in culture medium by GC/MS; settings: CHO cells
Procedure: Plasma, brain and culture medium levels of pregnenolone (5-Pregnen-3β-ol-20-one), allopregnanolone (3α-hydroxy-5α-pregnan-20-one), epiallopregnanolone (3β-hydroxy-5α-pregnan-ol-20-one), testosterone, and 5α dihydrotestosterone were determined by GC/MS according to the of estraction, purification and quantification protocol described previously (George O, et al., Biol Psychiatry. 2010 68: 956-63, Vallee M, et al., Anal Biochem. 2000, 287:153-66).
The CHO-K1 cell line (#CCL-61, ATCC-LGC, USA) derived as a subclone from the parental CHO cell line initiated from a biopsy of an adult Chinese hamster ovary was used. The CHO-K1 cells were seeded on 24-well plates (#353047, BD Biosciences, USA) to the appropriate concentration (25×10^4 cells/well) in fresh, antibiotic-free medium constituted by 90% DMEM-Glutamax; (#31966-21, Life technologies, USA) and 10% Fetal Bovine Serum (#10270-106, Life technologies, USA).
In this example the inventors further analyzed the metabolism of pregnenolone derivatives using an in vitro test in CHO cells. These cells derived from the ovary have all the enzymes needed to metabolize pregnenolone in down stream steroids.

GABA-A receptors = experiment: GABA-A receptors-mediated mIPSC in nucleus accumbens principal neurons; type: cell-based, mouse
Procedure: GABA-A receptors-mediated currents: mIPSC were recorded in the presence of the AMPAR and NMDAR antagonists (DNQX 20 μM and AP-5 50 μM, respectably). mEPSC-mIPSC analysis: Typically, after breaking in, cells were left to equilibrate for 20 minutes and the subsequent 10 minutes recording of mEPSC-mIPSC was used to analysis. mEPSC-mIPSC were detected using a template generated from averaging several typical events (Clampfit 10, Molecular Devices). The template was slid along the data trace one point at a time. At each position, the template was optimally scaled and offset to fit the data. A lower-amplitude threshold of 7 pA and 10 pA were applied for mEPSC and mIPSC, respectably, equivalent to 2.5SD of baseline noise. For each cell, the kinetics of mEPSC-mIPSC was measured from the average event using Clampfit 10. To estimate decay times, a two exponentials curve was fitted between 5 and 95% of the decay phase of the current given by the following equation: y(t)=A1·e^(−t/τ1)+A2·e^(−t/τ2), where A is the amplitude, t is the time and τ is the decay time constant. The weighted tau was then calculated.
In order to evaluate the effect of pregnenolone on the function of post-synaptic GABA we recorded mIPSC and compared its amplitude and decay time between groups. We observed that mIPSC amplitude and decay time were similar between controls (amplitude: 17.9±0.8 pA; decay time: 11.1±0.3 ms) and slices pre-treated with pregnenolone (100 nM and 1 μM, respectively; amplitude: 17.3±0.4 pA, 15.9±0.4 pA; decay time: 10.2±0.4 ms, 10.8±0.5 ms).

SMILES	% Inhibition of THC-Induced food intake (CB1 receptor [1])	inhibition in vivo at 6 mg/kg (TNF-α)	% Inhibition temperature decrease (CB1 receptor [2])	% increase in motor activity (CB1 receptor [2])	metabolism in downstream active steroids (Reduced metabolism / Metabolized) (CHO cells)	mIPSC amplitude (GABA-A receptors; slices pre-treated with 100 nM)	mIPSC decay time (GABA-A receptors; slices pre-treated with 100 nM)	mIPSC amplitude (GABA-A receptors; slices pre-treated with 1 μM)	mIPSC decay time (GABA-A receptors; slices pre-treated with 1 μM)
CC(=O)[C@H]1CC[C@H]2[C@@H]3CC[C@@H]4CC(=O)CC[C@]4(C)[C@H]3CC[C@]12C [Compound 60, 5β-Pregnan-3,20-dione]	≥100%, P < 0.002	77%	66%, P < 0.0001	70%, P < 0.05					
C[C@@H](O)[C@H]1CCC2C3CCC4=C[C@@H](O)CC[C@]4(C)C3CC[C@@]21C (stereo in doubt) [Compound 12, 4-Pregnen-3β,20α-diol]	≥100%, P < 0.001	81%	42%, P < 0.004	100%, P < 0.16	Reduced metabolism				
CC(=O)[C@H]1CCC2C3CC[C@@H]4C[C@@H](O)CC[C@]4(C)C3CC[C@@]21C (stereo partly drawn) [Compound 46, 5α-Pregnan-3α-ol-20-one (Allopregnanolone), reference compound]					Metabolized	15.9±0.5 pA	13.6 ± 0.7 ms	20.2±1.2 pA	22.7 ± 2.3 ms
CC[C@]1(C(C)=O)CCC2C3CC=C4C[C@@H](O)CC[C@]4(C)C3CC[C@@]21C (stereo partly drawn) [Compound 32, 17α-Ethylpregnenolone]		64%	12%, P > 0.25	−2%, P > 0.25	Reduced metabolism				
CC[C@H]1CCC2C3CC=C4C[C@@H](O)CC[C@]4(C)C3CC[C@@]21C (some centres unmarked) [Compound 24, 20-Deoxypregnenolone]		34%	25%, P < 0.08	33%, P > 0.20	Reduced metabolism				
COC1(C(C)=O)CCC2C3CC=C4C[C@@H](O)CC[C@]4(C)C3CC[C@@]21C (some centres unmarked) [Compound 36, 17-Methoxypregnenolone]	≥100%, P < 0.003	37%	54%, P < 0.001	326%, P < 0.001	Reduced metabolism				
CC(=O)[C@H]1CCC2C3CC=C4CC(N=[N+]=[N-])CC[C@]4(C)C3CC[C@@]21C (some centres unmarked) [Compound 72, 3-Azidopregnenolone]	≥100%, P < 0.001	61%	34%, P < 0.05	145%, P < 0.05	Reduced metabolism				
CC(=O)[C@@]1(C)CCC2C3CCC4=CC(=O)CC[C@]4(C)C3CC[C@@]21C (stereo partly drawn) [Compound 40, 17α-Methylprogesterone]	74%, P < 0.07	57%	18%, P < 0.02	57%, P < 0.21	Reduced metabolism				
C[C@H](O)[C@@]1(O)CCC2C3CCC4=CC(=O)CC[C@]4(C)C3CC[C@@]21C (stereo in doubt) [Compound 14, 4-Pregnen-17α,20α-diol-3-one]	70%, P < 0.06	65%	45%, P < 0.001	277%, P < 0.004	Reduced metabolism				
CC(=O)[C@H]1CCC2C3CC[C@@H]4C[C@@H](O)CC[C@]4(C)C3CC[C@@]21C (stereo partly drawn) [Compound 77, 5β-Pregnan-3β-ol-20-one (Epipregnanolone)]	≥100%, P < 0.01	76%	70%, P < 0.0001	177%, P < 0.02	Reduced metabolism				
CC(=O)C1=CC[C@H]2[C@@H]3CC=C4CCCC[C@]4(C)[C@H]3CC[C@]12C [Compound 39, 5,16-Pregnadien-20-one]	≥100%, P < 0.02	46%	56%, P < 0.001	309%, P < 0.001	Reduced metabolism				
CC(=O)[C@H]1CCC2C3CC=C4C[C@@H](OCc5ccccc5)CC[C@]4(C)C3CC[C@@]21C (stereo partly drawn) [Compound 41, 3β-Benzyloxypregnenolone]		62%	38%, P < 0.001	106%, P < 0.03	Reduced metabolism				
CC(=O)[C@@]1(Cc2ccccc2)CCC2C3CC=C4C[C@@H](O)CC[C@]4(C)C3CC[C@@]21C (stereo partly drawn) [Compound 65, 17α-Benzylpregnenolone]	≥100%, P < 0.001	65%	53%, P < 0.003	142%, P < 0.03	Reduced metabolism				
C[C@H](O)[C@H]1CCC2C3CC=C4C[C@@H](O)CC[C@]4(C)C3CC[C@@]21C (stereo partly drawn) [Compound 20, 5-Pregnen-3β,20α-diol]	85%, P < 0.03	65%	34%, P < 0.04	123%, P < 0.04	Reduced metabolism				
C[C@@H](O)[C@H]1CCC2C3CCC4=CC(=O)CC[C@]4(C)C3CC[C@@]21C (stereo in doubt) [Compound 18, 4-Pregnen-20α-ol-3-one]	30%, P > 0.25	65%	25%, P < 0.04	146%, P < 0.1	Reduced metabolism				
